# Data: patent publication US12195804B2, “Treatment of squamous cell carcinoma” (Board of Regents, The University of Texas System, priority 2018, dated 2025)
# What was measured:
# [1] = system: HNSCC cell lines; assay: CellTiter-Glo cell viability assay; format: cell-based, human; details: 0-200 nM, 72 hours
# Protocol: Cell viability assay. […] A CellTiter-Glo luminescent cell viability assay (Promega, Madison, WI) was performed as described previously (Castel et al., 2016; Muellner et al., 2011). Inhibitory concentration (ICs) and area under the curve (AUC) values were calculated using the drexplorer R package with a best-fit dose-response model (Zumsteg et al., 2016). The combination indices were calculated using the Chou-Talalay method (Cal et al., 2017) in CalcuSyn (Biosoft, Cambridge, UK). We tested the reproducibility and robustness of the data generated using three quality control parameters as described previously (Bohnacker et al., 2017). These parameters were the concordance correlation coefficient, location shift, and maximum standard deviation between two biological replicates for three technical and two biological replicates. Based on heuristics from our previous screening studies in lung cancer (Bohnacker et al., 2017), the cut-offs for reproducibility were a concordance correlation coefficient greater than 0.8, a location shift less than 0.9, and a standard deviation less than 0.23 based on the normal mixture fit model. Experiments not satisfying these criteria were repeated. The replicate with the smallest experimental variation measured by the median of standard deviation was chosen as a representative of the replicates, and its IC values served as the final values for subsequent analysis.
# Cell lines were classified as sensitive based on IC70 values less than the peak plasma concentration for each drug. To determine if cross-comparison of the PI3K/mTOR inhibitors as a class was feasible, their drug sensitivity patterns were compared with those of three cell cycle kinase inhibitors tested previously (Zhang et al., 2017). The PI3K/mTOR pathway inhibitors clustered separately from the cell cycle inhibitors (FIG. 12C).
# [2] = system: HNSCC cell lines; assay: Cell cycle analysis (BrdU/7-AAD flow cytometry); format: cell-based, human; details: 50 nM
# Protocol: FIGS. 16A-16C: Effects of PI3K/mTOR signaling inhibition on the survival of NOTCH1MUT and NOTCH1WT head and neck squamous cell carcinoma (HNSCC) cell lines in vitro. FIG. 16A. The Annexin V/propidium iodide assay was used to assess apoptosis in HNSCC cells that had the indicated NOTCH1 and PIK3CA mutations and were treated with 500 nM BAY806946. Values are the means {plus minus} standard deviations of three independent experiments. […], unpaired two-tailed Student t-test. FIG. 16B. NOTCH1MUT lines (red text) and NOTCH1WT lines (black text) were treated with increasing concentrations of BAY806946 for 3 hours, and then Western blotting was used to assess levels of p-AKT (S473). FIG. 16C. NOTCH1WT lines (black text), NOTCH1MUT lines (red text), and PIK3CAMUT lines (blue text) were treated with 50 nM GSK2126458 (GSK212) and then pulse-labeled with BrDU and counterstained with 7-AAD for flow cytometry.
# Apoptosis and cell cycle assays. […] Data were acquired with a three-laser, 10-color Gallios flow cytometer (Beckman Coulter, Brea, CA) and analyzed using Kaluza software (Beckman Coulter, Brea, CA). […]
smiles,measurement,setting,value
COc1ncc(-c2ccc3nccc(-c4ccnnc4)c3c2)cc1NS(=O)(=O)c1ccc(F)cc1F [GSK2126458],"cell viability, NOTCH1MUT and NOTCH1WT cell lines",[1],differential effects
same,sub-G0 fraction,[2],increased the sub-G0 fraction in only NOTCH1^MUT lines
same,G1 arrest,[2]; all cell lines,induced G1 arrest in all cell lines
